Several values for one entry are separate records, joined by “and”; a condition that tells them apart may be missing. Equal values may be shown once.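 How tested: cells in 96-well plates exposed to compound for 48 hours at five concentrations. GI50: concentration for 50% inhibition of growth. The concentration for full growth arrest is given as TGI.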
Experiments:
Test in all cases: NCI anticancer screen, dose series, 48 h
[1] = system: BT-549 breast
[2] = system: MCF7 breast
[3] = system: DU-145 prostate
[4] = system: DMS 273 small cell lung
[5] = system: HOP-18 NSCLC
[6] = system: DMS 114 small cell lung
[7] = system: XF 498 CNS
[8] = system: MDA-N
[9] = system: RXF-631 renal

Structure (SMILES) | GI50 [1] | TGI [1] | GI50 [2] | TGI [2] | GI50 [3] | TGI [3] | TGI [4] | TGI [5] | TGI [6] | TGI [7] | TGI [8] | GI50 [4] | TGI [9]
CN=C1NC(=O)/C(=C/c2ccc3ncccc3c2)S1 | 6.12 µM | > 23 µM | 6.21 µM | > 25 µM | 5.78 µM | > 25 µM |  |  |  |  |  |  | 
O=C1c2ccccc2C(=O)c2c1ccc1[nH]c(CCl)nc21 | 3.52 µM | 12.7 µM | 1.75 µM | 4.2 µM | 4.27 µM | 14.5 µM |  |  |  |  |  |  | 
Cn1cc(C2=C(c3ccc(OC[C@@H](O)CO)cc3)C(=O)NC2=O)c2ccccc21 | > 25 µM | > 25 µM | > 25 µM | > 25 µM | > 25 µM | > 25 µM |  |  |  |  |  |  | 
CC(=O)OCCc1cccnc1/C=N/O |  |  |  |  |  |  | > 100 µM | > 100 µM | > 100 µM | > 100 µM |  |  | 
CCN1CCN(c2nc(NCCNc3ccnc4cc(Cl)ccc34)c3ccccc3n2)CC1 | 2.01 µM | 5.39 µM | 1.11 µM | 11 µM | 2.17 µM | 9.14 µM |  |  |  |  |  |  | 
CCCCCCCCCCCCOC1C(CNCC2OC3OC(C)(C)OC3C2NC(=O)Nc2ccc(C(=O)OCC)cc2)OC2OC(C)(C)OC21 (stereo not drawn) | 5.44 µM | 19.8 µM | 1.35 µM | 2.92 µM | 1.89 µM | 3.73 µM |  |  |  |  |  |  | 
O=C(O)Cc1c[nH]c2ccc(F)cc12 |  | > 100 µM |  | > 100 µM |  | > 100 µM |  |  |  |  | > 100 µM |  | 
CNC(=O)c1cc(Oc2ccc3c(c2)sc2nc(-c4ccc(N)cc4)cn23)ccn1 | 0.5 µM | 51.6 µM | 0.128 µM | > 100 µM | 0.344 µM | > 100 µM |  |  |  |  |  |  | 
COc1ccc(N=Cc2cc(OC)c(OC)c(OC)c2)cc1 |  |  |  |  |  |  | > 100 µM | > 100 µM | > 100 µM | > 100 µM |  | 33 µM | 
C[C@@H]1Cc2c([nH]c3ccccc23)[C@@H](c2c(F)cc(/C=C/C(=O)O)cc2F)N1CC(C)(C)F | 11.3 µM | 26.3 µM |  | 25.6 µM | 19.1 µM | > 62.3 µM |  |  |  |  |  |  | 
OCCNCO |  |  |  |  |  |  | > 100 µM |  |  | > 100 µM |  |  | 
C#CC(C)(C)Oc1cc(O)c2c(=O)c3ccccc3n(C)c2c1 |  |  |  |  |  |  | > 100 µM | > 100 µM | > 100 µM | > 100 µM |  |  | > 100 µM
CCCCCCCCCCCCCCC1OC(=O)c2ccccc21 (stereo not drawn) |  |  |  |  |  |  |  | > 100 µM | 90.4 µM |  |  |  | > 100 µM
COc1cc2c(NCCCCCCO[N+](=O)[O-])ncnc2c(OC)c1OC |  | 56 µM |  | 71.4 µM |  | 72.2 µM |  |  |  |  | 56.4 µM |  | 
CC[n+]1ccc2c(c1)C(=O)c1nccc3c1c-2nc1ccccc13 | 0.832 µM | 3.12 µM | 0.587 µM | 4.84 µM | 1.03 µM | 4.31 µM |  |  |  |  |  |  | 
CC1=CCCC(OC(N)=O)C1 (stereo not drawn) |  |  |  |  |  |  | > 100 µM | > 100 µM |  | > 100 µM |  |  | > 100 µM

Structure (SMILES) | GI50 [1] | TGI [1] | GI50 [2] | TGI [2] | GI50 [3] | TGI [3] | TGI [4] | TGI [5] | TGI [6] | TGI [7] | TGI [8] | GI50 [4] | TGI [9]
O=[n+]1c(CBr)c(CBr)n([O-])c2ccccc21 | 1.85 µM | 5.13 µM | 3.11 µM | 12.4 µM | 5.8 µM | 18.4 µM |  |  |  |  |  |  | 
CN1CCN(Cc2ccc(NC(=O)c3cncc(C#Cc4cnc(N)c5ccccc45)c3)cc2C(F)(F)F)CC1 | 1.57 µM | 5.8 µM | 0.371 µM | 0.892 µM | 0.213 µM | 0.678 µM |  |  |  |  |  |  | 
N#Cc1c(O)c2c(c(O)c1C#N)C(=O)c1ccccc1C2=O | 3.77 µM | 14.9 µM | 1.46 µM | 3.76 µM | 1.19 µM | 2.5 µM |  |  |  |  |  |  | 
Cc1c(Cl)cccc1Nc1ncccc1C(=O)O | 61.2 µM | > 100 µM | > 100 µM | > 100 µM | > 100 µM | > 100 µM |  |  |  |  |  |  | 
CC(=O)/C=C/c1cccc(N=S)c1 |  |  |  |  |  |  | 20.9 µM | > 100 µM | > 66.1 µM | > 100 µM |  |  | > 100 µM
O=C(Nc1ccccc1[N+](=O)[O-])c1ccccc1 |  |  |  |  |  |  | > 100 µM | > 100 µM | > 100 µM | > 100 µM |  |  | > 100 µM
C/C(=N\NC(N)=S)c1ccc(C)cc1C |  |  |  |  |  |  | > 100 µM | > 100 µM |  | > 100 µM |  |  | > 100 µM
O=c1c(Cl)c(Cl)cnn1-c1ccccc1 |  | 3.12 µM and 3.19 µM |  | 18.9 µM and 13.6 µM |  | 28 µM and 27.8 µM | 3.94 µM and 12.4 µM | 22.8 µM and 21.9 µM | 5.76 µM and 3.09 µM | 5.47 µM | 6.77 µM and 3.65 µM | 2.03 µM and 5.59 µM | 
ClCc1ccccc1CSc1ncnc2nc[nH]c12 | > 60 µM | > 60 µM | 53 µM | > 60 µM | > 60 µM | > 60 µM |  |  |  |  |  |  | 
COc1ccc(-n2cc(-c3ccc(OC)c(OC)c3)[nH]c2=S)cc1Cl |  |  | > 100 µM | > 100 µM | > 100 µM | > 100 µM |  |  |  |  |  |  | 
COc1nc2c(cc1S(=O)(=O)c1ccccc1)CCc1c-2cnn1-c1ccccc1Cl | 3.49 µM | > 100 µM | 4.13 µM | > 100 µM | > 100 µM | > 100 µM |  |  |  |  |  |  | 
Cc1c(C(=O)/C=C/c2cccc3ccccc23)[n+](=O)c2ccccc2n1[O-] |  |  |  |  |  |  | 24.5 µM | 28.6 µM | 16.8 µM |  |  |  | 56.4 µM
CC1=C(CCCOC(=O)NCCCl)C2=C(C)C3(CC3)[C@@](C)(O)C(=O)C2=C1 | 2.08 µM | 6.66 µM | 2.24 µM | > 100 µM | 1.14 µM | > 100 µM |  |  |  |  |  |  | 
O=C(O/N=C1/CCC/C1=C\c1ccccc1)c1ccc([N+](=O)[O-])cc1 |  |  |  |  |  |  | > 100 µM | > 100 µM | > 100 µM |  |  |  | > 100 µM
Cc1cc(C)nc(NS(=O)(=O)c2ccc(NC(=O)c3cccc4c(=O)c5ccccc5[nH]c34)cc2)n1 |  |  |  |  |  |  | 48.4 µM | 47.2 µM | 35.2 µM | 40.6 µM |  |  | > 100 µM
O=C1CC[C@H]2CNC(=O)C[C@H]2C1 |  |  |  |  |  |  | > 100 µM |  |  | > 100 µM |  |  | > 100 µM

From PubChem BioAssay (NCI)
